Source: PubChem BioAssay AID624410 (The Scripps Research Institute Molecular Screening Center, 2012)
Calls of active or inactive are those of the source. The rule behind the calls is not given here.

Biological target: Orexin/Hypocretin receptor type 1 (Homo sapiens) (UniProt O43613)
Test: OX1R antagonist potency, HTRF readout, late-stage follow-up, OX1R antagonist probe project, cell-based (AID 624410)
Conditions: OX1R-expressing cells, HTRF antagonist assay

Sequence of Orexin/Hypocretin receptor type 1 (Homo sapiens) (O43613 whole entry, looked up): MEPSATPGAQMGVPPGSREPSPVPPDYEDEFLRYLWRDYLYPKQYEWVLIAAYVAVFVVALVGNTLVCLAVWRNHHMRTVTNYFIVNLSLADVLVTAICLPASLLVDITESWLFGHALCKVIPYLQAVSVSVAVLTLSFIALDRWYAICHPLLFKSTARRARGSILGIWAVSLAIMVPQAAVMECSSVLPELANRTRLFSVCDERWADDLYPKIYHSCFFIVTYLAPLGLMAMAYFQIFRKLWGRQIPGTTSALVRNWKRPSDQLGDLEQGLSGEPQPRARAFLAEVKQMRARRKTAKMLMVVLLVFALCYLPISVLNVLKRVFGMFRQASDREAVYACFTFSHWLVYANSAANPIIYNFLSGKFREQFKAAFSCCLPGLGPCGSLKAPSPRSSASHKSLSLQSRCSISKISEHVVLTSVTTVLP

IC50 | Structure (SMILES)
3740 nM | Cc1ccccc1NC(=O)C1CCCN1S(=O)(=O)c1ccccc1C(F)(F)F (stereo not given)
3060 nM | Cc1ccc(-c2csc3nnc(SCC(=O)Nc4nsc(-c5ccccc5)n4)n23)cc1
2710 nM | COc1ccc(OC)c(S(=O)(=O)NCC(c2ccco2)N2CCc3ccccc32)c1 (stereo not given)
2820 nM | Cc1cccc(C=NNC(=O)c2cc3c(s2)-c2ccccc2CC3)c1
inactive | O=c1cc(CN2CC(O)Cc3ccc4ccccc4c32)nc2sccn12 (stereo not given)
3340 nM | Fc1cccc(Nc2nc3ccccc3n3cnnc23)c1
inactive | CCOC(=O)N1CCN(C(=O)CSc2ccc(-c3ccccc3)nn2)CC1
611 nM | CCSC1=C(C#N)C(c2ccccc2Cl)C(C(=O)c2cccs2)C(O)(C(F)(F)F)N1 (stereo not given)
769 nM | CCOc1ccccc1C(=O)Nc1ccc2nc3n(c(=O)c2c1)CCCCC3
2030 nM | Cc1cccc(NC(=O)[C@@H]2CCCN2S(=O)(=O)c2ccc(Cl)cc2)c1
1900 nM | COc1cc(OC)c(-c2nc3ccccc3s2)cc1OC
1960 nM | O=C(CSc1ccc(-c2ccccc2)nn1)c1cccs1
437 nM | Cc1cc(Cl)ccc1OCCCC(=O)NCCN1C(=O)S/C(=C\c2cccnc2)C1=O
1900 nM | CSc1cccc(N2CC(C(=O)NCCN3C(=O)S/C(=C\c4cccnc4)C3=O)CC2=O)c1 (stereo not given)
3020 nM | CC(=C/c1ccccc1)/C=C1/SC(N2CCOCC2)=NC1=O
844 nM | CCn1c(SCC(=O)Nc2ccc3c(c2)c2ccccc2n3CC)nnc1-c1cnccn1
1610 nM | CCc1cc2c(SCC(=O)N(CC)c3c(N)n(Cc4ccccc4)c(=O)[nH]c3=O)ncnc2s1
inactive | Cc1noc(C)c1COc1ccc(C(=O)OCC(=O)N2CC(=O)Nc3ccccc32)cc1
468 nM | COc1cccc(/C=C2/Oc3ccccc3N(CC(=O)NCC3CCCO3)C2=O)c1 (stereo not given)
277 nM | O=C(CN1C(=O)/C(=C\c2cccc(Br)c2)Oc2ccccc21)NCC1CCCO1 (stereo not given)
6540 nM | COCCCNC(=O)CCC(=O)NNc1nc2ccccc2c2nc(-c3ccccc3)nn12
2190 nM | CCc1cc(C(=O)OCC(=O)N2CCC(c3ccccc3)=N2)sc1C
655 nM | CCN(CC)c1ccc(NC(=O)Cn2c(C(C)NC(=O)c3ccccc3)nc3ccccc32)cc1 (stereo not given)
750 nM | Cc1c(NS(=O)(=O)c2cccc(C(=O)OCC(=O)N(C)C3CCCCC3)c2)c(=O)n(-c2ccccc2)n1C
386 nM | CSc1cccc(NC(=O)C2CCCN2S(=O)(=O)c2ccc(Br)s2)c1 (stereo not given)
